Earlier results as cited in patent publication US6632929B1, “Avidin derivatives and uses thereof” (Yeda Research and Development Co. LTD, priority 1998, dated 2003).

How the values were obtained:
avidin [1] = target: T1, avidin (Gallus gallus, UniProt P02701); conditions: non-covalent, same biotin-binding site (Green, 1965); read-out: affinity; cited from earlier work
T1 construct: Egg-white avidin was provided by STC laboratories (Winnipeg, Canada); purchased STC laboratories (Winnipeg, Canada); host or cells: egg white
T1 sequence (P02701 25-152): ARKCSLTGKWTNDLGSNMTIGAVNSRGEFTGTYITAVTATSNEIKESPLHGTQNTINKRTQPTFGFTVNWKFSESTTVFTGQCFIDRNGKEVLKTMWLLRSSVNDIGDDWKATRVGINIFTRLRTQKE

streptavidin = streptavidin (Streptomyces avidinii, UniProt P22629); conditions: streptavidin-biotin complex; cited from earlier work
streptavidin, sequence (P22629 25-183): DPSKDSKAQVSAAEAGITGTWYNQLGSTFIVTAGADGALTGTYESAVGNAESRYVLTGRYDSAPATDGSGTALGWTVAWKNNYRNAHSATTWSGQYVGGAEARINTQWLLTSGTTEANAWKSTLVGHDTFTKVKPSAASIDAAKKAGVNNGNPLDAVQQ

avidin [2] = target: T1, avidin; conditions: avidin-biotin complex; cited from earlier work

SMILES	Kd (avidin [1]) [µM]	affinity constant (streptavidin) [M⁻¹]	affinity constant (avidin [2]) [M⁻¹]
O=C(O)c1ccccc1N=Nc1ccc(O)cc1 [4′-hydroxyazobenzene-2-carboxylic acid]	1 to 10		
O=C(O)CCCC[C@@H]1SC[C@@H]2NC(=O)N[C@@H]21 [biotin]		2.5e+13	1.6e+15
